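1) Cells in 96-well plates. 2) Compound, 48 h, 5 concentrations. 3) Linear interpolation between surrounding doses. 4) Unreached endpoint = highest concentration. GI50 = concentration required for 50% inhibition of growth. TGI denotes the concentration required for complete inhibition of growth.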
What was measured:
Assay in all cases: inhibition of tumour cell growth, NCI panel, 48 h
[1] = tested on: IGROV1 ovarian
[2] = tested on: OVCAR-5 ovarian
[3] = tested on: RPMI-8226 leukemia
[4] = tested on: EKVX NSCLC
[5] = tested on: NCI/ADR-RES ovarian
[6] = tested on: BT-549 breast
[7] = tested on: MDA-MB-231 breast
[8] = tested on: UACC-257 melanoma
[9] = tested on: DU-145 prostate
[10] = tested on: U251 CNS
[11] = tested on: CCRF-CEM leukemia

Row | Structure (SMILES) | TGI [1] [µM] | TGI [2] [µM] | TGI [3] [µM] | TGI [4] [µM] | TGI [5] [µM] | TGI [6] [µM] | TGI [7] [µM] | TGI [8] [µM] | TGI [9] [µM] | TGI [10] [µM] | TGI [11] [µM] | GI50 [2] [µM] | GI50 [3] [µM] | GI50 [4] [µM] | GI50 [11] [µM] | GI50 [7] [µM] | GI50 [8] [µM] | GI50 [9] [µM] | GI50 [10] [µM]
1 | COC(=O)C1CCC(=O)N1C(c1ccccc1)c1ccc(OC)c(OC)c1 (stereo unspecified) | > 100 | > 100 | > 100 | > 100 | > 100 | > 100 | > 100 | > 100 | > 100 | > 100 |  |  |  |  |  |  |  |  | 
2 | CC1=C(C)[C@@]2(C)O[C@@]2(C)O[C@@]2(C)O[C@@]12C |  | > 100 |  | > 100 | > 100 | > 100 | > 100 | > 100 | > 100 | > 100 |  |  |  |  |  |  |  |  | 
3 | CC(=O)NC1=C(NCCC(C)C)C(=O)c2ccccc2C1=O | > 50 |  |  | > 50 |  |  |  | > 50 |  | > 50 | > 50 |  |  |  |  |  |  |  | 
4 | C[n+]1c2ccccc2c(/C=N\NS(=O)(=O)c2ccc(O)c(C(=O)O)c2)c2ccccc21 | > 100 | > 100 | > 100 | > 100 |  |  |  |  |  | > 100 | > 100 |  |  |  |  |  |  |  | 
5 | CCC1(O)CC2CC(=O)OC2C1O (stereo unspecified) | > 100 | > 100 | > 100 | > 100 | > 100 |  | > 100 | > 100 | > 100 | > 100 | 25.7 |  |  |  |  |  |  |  | 
6 | CCCNC1=C2CC(C)CC(OC)[C@@H](O)[C@H](C)/C=C(\C)C(OC(N)=O)C(OC)/C=C\C=C(/C)C(=O)NC(=CC1=O)C2=O (stereo partly specified) | 41.6 |  | 42.2 | 84.4 |  | 42.1 | 7.47 | 36.4 | 65.5 | > 100 | 3.13 | 13.3 | 0.463 | 16 | 0.309 | 3.36 | 0.318 | 14.8 | 29.5
7 | CNC(=O)C(C)C1CCC2(C)C=CC(=O)C(C)=C2C1O (stereo unspecified) | > 100 | > 100 | > 100 | > 100 | > 71.7 |  |  | > 100 |  | > 64.9 | > 100 |  |  |  |  |  |  |  | 
8 | COc1ccc(CNc2nc(NCc3ccc(OC)c(OC)c3)nc(NC3CCCCC3)n2)cc1 | > 100 | > 100 |  | > 100 | 17.5 | > 100 | > 100 | > 100 | > 100 | > 100 | > 100 |  |  |  |  |  |  |  | 
9 | COc1cc(/C=C2\S/C(=N/Nc3nc(-c4ccc(Br)cc4)cs3)NC2=O)cc(OC)c1OC | 37 | 83.1 |  | 63.8 | 35.1 | 33.8 | 47.6 | 44.9 | 52.4 | 16.3 | 10.3 |  |  |  |  |  |  |  | 
10 | CC[C@@]1(C[C@H]2C[C@@]3(C(=O)OC)c4[nH]c5ccccc5c4CCN3C2=O)COC2(CCCCC2)O1 | > 100 | > 100 |  | > 100 | > 100 | > 100 | > 100 | 64.2 | > 100 |  |  |  |  |  |  |  |  |  | 
11 | O=C1CCC23CC(C=CC=C12)n1c(=O)n(-c2ccccc2)c(=O)n13 (stereo unspecified) | > 100 | > 100 | > 100 | > 100 | > 81.2 |  |  | > 100 |  | > 100 | > 100 |  |  |  |  |  |  |  | 
12 | COc1ccc(N2C(=O)C3c4[nH]c5ccccc5c4C4CCC(C(C)(C)C)CC4C3C2=O)c(C)c1 (stereo unspecified) | > 100 |  | > 100 | > 100 | > 100 | > 100 | > 100 | > 100 | > 100 | > 100 | > 100 |  |  |  |  |  |  |  | 
13 | C=C(Br)C(C)(Cl)CCC(Br)C(C)(C)Cl (stereo unspecified) | > 100 | > 100 |  | > 100 | > 100 | > 100 | > 100 | 85 | > 100 | > 100 | 44.5 |  |  |  |  |  |  |  | 
14 | Oc1cc2c3c(c1)c1cc4c(cc1c[n+]3CC2)OCO4 | > 39.8 | > 100 | 6.46 | > 76.6 |  | 8.1 | 29.9 | > 57.4 | > 42.9 |  | > 45.8 |  |  |  |  |  |  |  | 
15 | CC(=O)Nc1ccc(-c2nnc(SCC(=O)Nc3ccc([N+](=O)[O-])cc3)o2)cc1 | 23.4 | 36 | > 100 |  |  |  |  | 24.7 |  | 28 | > 100 |  |  |  |  |  |  |  | 
16 | CN1CCN([C@H]2C[C@H]3[C@@H]4CC=C5C[C@@H](O)CC[C@]5(C)[C@H]4CC[C@]3(C)C2=O)CC1 | > 100 | > 100 | > 100 | > 100 | > 100 | > 100 | > 100 | > 100 |  | > 100 | > 100 |  |  |  |  |  |  |  | 
17 | Cc1cccc2c(=O)cc(-c3ccccc3)[nH]c12 | > 100 |  | > 100 | > 100 |  |  |  | > 100 |  | > 100 | > 100 |  |  |  |  |  |  |  | 
18 | O=C1OCC(O)=C1C(c1ccc(Cl)cc1)c1cc2c(cc1O)OCO2 (stereo unspecified) | > 100 | > 100 |  | > 100 | > 100 | > 100 | > 100 |  | > 100 |  | > 100 |  |  |  |  |  |  |  | 
19 | O=S1(=O)NC(=NCc2c[nH]c3ccccc23)N(c2ccccc2)c2ccncc21 |  | > 100 |  | > 100 | > 100 | > 100 | > 100 | > 100 | > 100 | > 100 | > 100 |  |  |  |  |  |  |  | 
20 | COc1ccc2c(=O)c(O)c(-c3ccc(OC)c(OC)c3)oc2c1 | > 100 | > 100 | > 100 | > 100 | 8.25 |  | > 100 | > 100 | > 100 | > 100 | > 100 |  |  |  |  |  |  |  | 
21 | O=C(Cc1cccs1)N[C@@H]1C(=O)N2C(C(=O)OC(c3ccccc3)c3ccccc3)=C(CO)CS[C@H]12 | > 100 | > 100 | > 100 | > 100 | > 100 |  | > 100 | > 100 | > 100 | > 100 | > 100 |  |  |  |  |  |  |  | 
22 | CCOC(=O)N1CCC2(CC1)C[C@](C)(C(C)=O)C(C)O2 (stereo partly specified) | > 100 | > 100 | > 100 | > 100 | > 100 |  | > 100 | > 100 |  | > 100 |  |  |  |  |  |  |  |  | 

Reference: PubChem BioAssay (NCI)
